Patent US20120196899A1, “METHODS AND PRODUCTS FOR TREATING INFLAMMATION” (Rock Creek Pharmaceuticals, Inc., priority 2010, published 2012)
Read-outs that look alike come from different tables or passages of the source.

Assay: Plasma toxicokinetics after single i.v. bolus
Format: in vivo, Sprague-Dawley rats
Details: for concentration at 0.5 h / concentration at 1 h / concentration at 2 h / concentration at 4 h / concentration at 6 h / concentration at 8 h / AUC(0-inf) / MRT / Vd / half-life: Sprague-Dawley, rat, plasma; for concentration at 0.5 h / concentration at 1 h / concentration at 2 h / concentration at 4 h / concentration at 6 h / concentration at 8 h: intravenous, read-out: Avg. Conc. rat plasma; for AUC(0-inf) / MRT / Vd / half-life: iv; for half-life: read-out: t1/2 (converted)
Method: Six rats (3 males and 3 females) were dosed per dose group. […] Plasma and brain homogenates were stored at −80° C. until analysis.
An additional 48 rats (24 males and 24 females) received a single intravenous dose via the tail vein at the same doses as mentioned above. At 30 and 360 minutes post administration, 6 rats (3 males and 3 females) per dose group, per time point were euthanized, bled via cardiac puncture, and perfused, and brains were collected. The brains were homogenized. Blood was spun, and plasma was collected. Plasma and brain homogenate were stored at −80° C.
Four aliquots of each dose level formulation were collected and stored at −80° C. The test compound, corresponding dose level, number of animals, and sample collection times for Phase I of the study are shown in Table 3. The test compound, corresponding dose level, number of animals, and sample collection times for Phase II of the study are shown in Table 4. The physical signs of each animal were monitored following administration of the test compound.
The animals were weighed prior to dosing and received a single i.v. dose of either test compound at a volume of 5 mL/kg. Blood was collected via the venus plexus (retro-orbital) into tubes containing (K2) EDTA. No more than 0.5 mL was collected per time point. […] The brain was removed, weighed, homogenized in sterile 0.9% saline at a volume equal to its weight, and stored at −80° C.
Plasma was separated according to the instructions for MICROTAINER® brand collection tubes (3 minutes, 2000×g). Plasma was decanted into microfuge tubes and stored at −80° C. Remaining test compound was stored at −80° C.
The signal was optimized for each compound by electrospray ionization (ESI) positive or negative ionization mode. A single ion mode (SIM) scan was used to optimize the Fragmentor for the precursor ion and a product ion analysis was used to identify the best fragment for analysis and to optimize the collision energy. The fragment which gave the most sensitive and specific signal was chosen.
Sample preparation. […] The amount of the test agent in the supernatant was determined by liquid chromatography tandem mass spectrometry (LC/MS/MS).
Analysis. Samples were analyzed by LC/MS/MS using an Agilent 6410 mass spectrometer coupled with an Agilent 1200 high pressure liquid chromatography (HPLC) and a CTC PAL chilled autosampler, all controlled by MassHunter software (Agilent). After separation on a hydrophilic interaction liquid chromatography (HILIC) HPLC column (Sepax) using an acetonitrile-ammonium acetate/acetic acid gradient system, peaks were analyzed by mass spectrometry (MS) using ESI ionization in multiple reaction monitoring (MRM) mode. MassHunter software was used to calculate the concentration of the test compounds in samples from the peak area using the appropriate calibration curves.
Calibration samples. Calibration curves were determined for both rat plasma and brain homogenate. Calibration samples were prepared by diluting a 50× stock solution of the test compound in PBS with blank matrix to the appropriate concentration and these samples were prepared as described above in the sample preparation.

[1] = female, 0.1 mg/kg, Anatabine 0.1 mg/kg, female
[2] = female, 0.75 mg/kg, Anatabine 0.75 mg/kg, female
[3] = female, 1 mg/kg, Anatabine 1.0 mg/kg, female
[4] = male, 0.1 mg/kg, Anatabine 0.1 mg/kg, male
[5] = male, 0.75 mg/kg, Anatabine 0.75 mg/kg, male
[6] = male, 1 mg/kg, Anatabine 1.0 mg/kg, male

In the case of `C1=CCC(c2cccnc2)NC1` (racemic) [Anatabine, 1,2,3,6-tetrahydro-[2,3′]bipyridinyl], the concentration at 0.5 h (female, 0.1 mg/kg, Anatabine 0.1 mg/kg, female, 0.5 hr (2nd 0.5 hr line)) is reported as 31.7 ng/mL, the concentration at 1 h [1] is reported as 11 ng/mL and the concentration at 2 h [1] is reported as 6.7 ng/mL. It also gave a concentration at 4 h [1] of 4 ng/mL, a concentration at 6 h (female, 0.1 mg/kg, Anatabine 0.1 mg/kg, female, 6 hr (1st 6 hr line, N=3)) of 3.7 ng/mL and a concentration at 6 h (female, 0.1 mg/kg, Anatabine 0.1 mg/kg, female, 6 hr (2nd 6 hr line, N=1)) of 3 ng/mL. It also gave a concentration at 0.5 h (female, 0.75 mg/kg, Anatabine 0.75 mg/kg, female, 0.5 hr (1st 0.5 hr line)) of 190 ng/mL, a concentration at 0.5 h (female, 0.75 mg/kg, Anatabine 0.75 mg/kg, female, 0.5 hr (2nd 0.5 hr line)) of 354 ng/mL and a concentration at 1 h [2] of 173 ng/mL. It also gave a concentration at 2 h [2] of 99.7 ng/mL, a concentration at 4 h [2] of 45.3 ng/mL and a concentration at 6 h (female, 0.75 mg/kg, Anatabine 0.75 mg/kg, female, 6 hr (1st 6 hr line)) of 18.3 ng/mL. It also gave a concentration at 6 h (female, 0.75 mg/kg, Anatabine 0.75 mg/kg, female, 6 hr (2nd 6 hr line)) of 23 ng/mL, a concentration at 8 h [2] of 11 ng/mL and a concentration at 0.5 h (female, 1 mg/kg, Anatabine 1.0 mg/kg, female, 0.5 hr (1st 0.5 hr line)) of 237 ng/mL. For the same molecule, the concentration at 0.5 h (female, 1 mg/kg, Anatabine 1.0 mg/kg, female, 0.5 hr (2nd 0.5 hr line)) was 368 ng/mL, the concentration at 1 h [3] was 229 ng/mL and the concentration at 2 h [3] was 164 ng/mL. The concentration at 4 h [3] was 60.7 ng/mL, the concentration at 6 h (female, 1 mg/kg, Anatabine 1.0 mg/kg, female, 6 hr (1st 6 hr line)) was 29.3 ng/mL and the concentration at 6 h (female, 1 mg/kg, Anatabine 1.0 mg/kg, female, 6 hr (2nd 6 hr line)) was 23 ng/mL. For the same molecule, the concentration at 8 h [3] was 17.7 ng/mL, the AUC(0-inf) (female, 0.1 mg/kg) was 37.9 ± 15.9 ng·h/mL and the MRT (female, 0.1 mg/kg) was 2.55 ± 0.93 h. For the same molecule, the Vd (female, 0.1 mg/kg) was 6.52 ± 0.66 L/kg, the AUC(0-inf) (female, 0.75 mg/kg) was 544 ± 62.7 ng·h/mL and the Vd (female, 0.75 mg/kg) was 3.19 ± 0.15 L/kg. It also gave a half-life (female, 0.75 mg/kg, anatabine 0.75 mg/kg single i.v., female rats) of 1.73 ± 0.03 h, an AUC(0-inf) (female, 1 mg/kg) of 789 ng·h/mL and an MRT (female, 1 mg/kg) of 2.8 h. The Vd (female, 1 mg/kg) was 3.16 ± 0.15 L/kg, the half-life (female, 1 mg/kg, anatabine 1.0 mg/kg single i.v., female rats) was 1.84 h and the concentration at 0.5 h (male, 0.1 mg/kg, Anatabine 0.1 mg/kg, male, 0.5 hr (1st 0.5 hr line)) was 15.3 ng/mL. The concentration at 0.5 h (male, 0.1 mg/kg, Anatabine 0.1 mg/kg, male, 0.5 hr (2nd 0.5 hr line)) was 31.7 ng/mL, the concentration at 1 h [4] was 12.3 ng/mL and the concentration at 2 h [4] was 6.3 ng/mL. For the same molecule, the concentration at 4 h [4] was 3 ng/mL, the concentration at 6 h (male, 0.1 mg/kg, Anatabine 0.1 mg/kg, male, 6 hr (2nd 6 hr line)) was 5 ng/mL and the concentration at 0.5 h (male, 0.75 mg/kg, Anatabine 0.75 mg/kg, male, 0.5 hr (1st 0.5 hr line)) was 181 ng/mL. For the same molecule, the concentration at 0.5 h (male, 0.75 mg/kg, Anatabine 0.75 mg/kg, male, 0.5 hr (2nd 0.5 hr line)) was 302 ng/mL, the concentration at 1 h [5] was 152 ng/mL and the concentration at 2 h [5] was 83.7 ng/mL. The concentration at 4 h [5] was 34.7 ng/mL, the concentration at 6 h (male, 0.75 mg/kg, Anatabine 0.75 mg/kg, male, 6 hr (1st 6 hr line)) was 14 ng/mL and the concentration at 6 h (male, 0.75 mg/kg, Anatabine 0.75 mg/kg, male, 6 hr (2nd 6 hr line)) was 22 ng/mL. The concentration at 8 h [5] was 9 ng/mL, the concentration at 0.5 h (male, 1 mg/kg, Anatabine 1.0 mg/kg, male, 0.5 hr (1st 0.5 hr line)) was 272 ng/mL and the concentration at 0.5 h (male, 1 mg/kg, Anatabine 1.0 mg/kg, male, 0.5 hr (2nd 0.5 hr line)) was 399 ng/mL. It also gave a concentration at 1 h [6] of 234 ng/mL, a concentration at 2 h [6] of 123 ng/mL and a concentration at 4 h [6] of 42.3 ng/mL. It also gave a concentration at 6 h (male, 1 mg/kg, Anatabine 1.0 mg/kg, male, 6 hr (1st 6 hr line)) of 18 ng/mL, a concentration at 6 h (male, 1 mg/kg, Anatabine 1.0 mg/kg, male, 6 hr (2nd 6 hr line)) of 27 ng/mL and a concentration at 8 h [6] of 7.7 ng/mL. The AUC(0-inf) (male, 0.1 mg/kg) was 32 ± 7.7 ng·h/mL, the MRT (male, 0.1 mg/kg) was 2.03 ± 0.41 h and the Vd (male, 0.1 mg/kg) was 5.29 ± 0.49 L/kg. It also gave a half-life (male, 0.1 mg/kg, anatabine 0.1 mg/kg single i.v., male rats) of 1.25 ± 0.32 h, an AUC(0-inf) (male, 0.75 mg/kg) of 464 ± 36.2 ng·h/mL and an MRT (male, 0.75 mg/kg) of 2.5 ± 0.19 h. For the same molecule, the Vd (male, 0.75 mg/kg) was 3.48 ± 0.18 L/kg, the AUC(0-inf) (male, 1 mg/kg) was 631 ng·h/mL and the MRT (male, 1 mg/kg) was 2.18 h. For the same molecule, the Vd (male, 1 mg/kg) was 3.01 ± 0.12 L/kg, the half-life (male, 1 mg/kg, anatabine 1.0 mg/kg single i.v., male rats) was 1.44 h and the “plasma concentration between approximately 6 and 8 hours” value (nicotine 0.4 mg/kg, anatabine 0.1 mg/kg single i.v., rats) was “below the limits of quantitation”.
